According to patent US11292807B2 (OCEANS LTD., priority 2015, dated 2022):
Like-named read-outs stand apart in the source and are kept apart here.

Tests used:
[1] = system: SKOV3 (ovarian adenocarcinoma); assay: CIMA assay, cell viability, SKOV3
Method: (§1) Stock solutions of the extracts were prepared in dimethylsulfoxide (DMSO) at 10 mg/mL and stored in 200 μl aliquots at −20° C. until analysis. This preparation ensured that the DMSO delivered to cells in culture never exceeded 1%.
(§2) Prepared extracts were assessed following chronic exposure conditions in which cells were seeded at 2×10^3 cells/well (96 well-plate) and incubated with test compounds for 72 h. Each compound was evaluated over a range of concentrations (0, 10, 25, 50 or 100 μg/ml). Cell proliferation was initially assessed using a standard colorimetric indicator of metabolic activity (CIMA) assay. In this assay, tetrazole reduction was evaluated as a measure of metabolic function that evaluates mitochondrial activity to determine the extent of cell proliferation within a culture. This assay is based on the reduction of yellow tetrazolium salt to purple formazan by mitochondrial reductases enzyme in viable cells, resulting in a color changed that confers a change in absorbance.

[2] = system: CCD1079SK (fibroblast, noncancerous but proliferating); assay: CIMA assay, cell viability, CCD1079SK; conditions: CCD
[3] = CIMA assay, cell viability, CCD1079SK; conditions: human, Average cell viability, CCD
[4] = system: MDA-MB; assay: cells; conditions: Homo sapiens, read-out: Average cell viability, MDA-MB
[5] = system: MDA-MB; conditions: MDA-MB
[6] = system: U373 (glioblastoma-astrocytoma); assay: CIMA assay, cell viability, U373
[7] = system: A549 (lung carcinoma); assay: CIMA assay (colorimetric indicator of metabolic activity), cell viability, A549
Method: as §1, §2

[8] = system: PC3; assay: CIMA assay, cell viability, PC3
[9] = system: THP-1 (acute monocytic leukemia); assay: CIMA assay, cell viability, THP-1
Method: as §1, §2

## CC/C=C\C/C=C\C/C=C\C/C=C\C/C=C\CCCC(=O)OCC(O)COC1OC(CO)C(O)C(O)C1O (stereo not shown) [Compound 13, lyso-MGDG C20:5]
[1]; Homo sapiens, SK-OV-3, read-out: Average cell viability, SKOV, 1 ug/mL
  viability at 1 µg/mL: 125%
[1]; Homo sapiens, SK-OV-3, read-out: Average cell viability, SKOV, 10 ug/mL
  viability at 10 µg/mL: 105%
[1]; Homo sapiens, SK-OV-3, read-out: Average cell viability, SKOV, 50 ug/mL
  viability at 50 µg/mL: 78%
[1]; Homo sapiens, SK-OV-3, read-out: Average cell viability, SKOV, 100 ug/mL
  viability at 100 µg/mL: 34%
[1]; SKOV, 1 ug/mL
  Fold change in viability AVG: 1.34
[1]; SKOV, 10 ug/mL
  Fold change in viability AVG: 1.13
[1]; SKOV, 50 ug/mL
  Fold change in viability AVG: 0.84
[1]; SKOV, 100 ug/mL
  Fold change in viability AVG: 0.37
[2]; 1 ug/mL
  Fold change in viability AVG: 1.13
[2]; 10 ug/mL
  Fold change in viability AVG: 1.09
[2]; 50 ug/mL
  Fold change in viability AVG: 0.24
[2]; 100 ug/mL
  Fold change in viability AVG: 0.15
[3]; CCD1079SK fibroblast cells (noncancerous, proliferating), 1 ug/mL
  viability at 72 h, 1 ug/mL: 103%
[3]; CCD1079SK fibroblasts (noncancerous, proliferating), 10 ug/mL
  viability at 72 h, 10 ug/mL: 99%
[3]; CCD1079SK fibroblasts (noncancerous, proliferating), 50 ug/mL
  viability at 72 h, 50 ug/mL: 22%
[3]; CCD1079SK fibroblasts (noncancerous, proliferating), 100 ug/mL
  viability at 72 h, 100 ug/mL: 14%
[4]; 1 ug/mL
  viability at 1 µg/mL: 102%
[4]; 10 ug/mL
  viability at 10 µg/mL: 105%
[4]; 50 ug/mL
  viability at 50 µg/mL: 30%
[4]; 100 ug/mL
  viability at 100 µg/mL: 25%
[5]; sample at 1 ug/mL
  MDA-MB AVG: 1.11
[5]; sample at 10 ug/mL
  MDA-MB AVG: 1.14
[5]; sample at 50 ug/mL
  MDA-MB AVG: 0.33
[5]; sample at 100 ug/mL
  MDA-MB AVG: 0.28
[5]; 1 ug/mL
  Fold change in viability AVG: 1.11
[5]; 10 ug/mL
  Fold change in viability AVG: 1.14
[5]; 50 ug/mL
  Fold change in viability AVG: 0.33
[5]; 100 ug/mL
  Fold change in viability AVG: 0.28
[6]; Homo sapiens, U373 MG, read-out: Average cell viability, U373, 1 ug/mL
  viability at 1 µg/mL: 111%
[6]; Homo sapiens, U373 MG, read-out: Average cell viability, U373, 10 ug/mL
  viability at 10 µg/mL: 100%
[6]; Homo sapiens, U373 MG, read-out: Average cell viability, U373, 50 ug/mL
  viability at 50 µg/mL: 7%
[6]; Homo sapiens, U373 MG, read-out: Average cell viability, U373, 100 ug/mL
  viability at 100 µg/mL: 6%
[6]; U373, sample at 1 ug/mL
  U373 AVG: 1.13
[6]; U373, sample at 10 ug/mL
  U373 AVG: 1.02
[6]; U373, sample at 50 ug/mL
  U373 AVG: 0.07
[6]; U373, sample at 100 ug/mL
  U373 AVG: 0.06
[6]; U373, 1 ug/mL
  Fold change in viability AVG: 1.13
[6]; U373, 10 ug/mL
  Fold change in viability AVG: 1.02
[6]; U373, 50 ug/mL
  Fold change in viability AVG: 0.07
[6]; U373, 100 ug/mL
  Fold change in viability AVG: 0.06
[7]; A549, sample at 1 ug/mL
  A549 AVG: 0.67
[7]; A549, sample at 10 ug/mL
  A549 AVG: 0.64
[7]; A549, sample at 50 ug/mL
  A549 AVG: 0.67
[7]; A549, sample at 100 ug/mL
  A549 AVG: 0.38
[7]; A549, 1 ug/mL
  Fold change in viability AVG: 0.67
[7]; A549, 10 ug/mL
  Fold change in viability AVG: 0.64
[7]; A549, 50 ug/mL
  Fold change in viability AVG: 0.67
[7]; A549, 100 ug/mL
  Fold change in viability AVG: 0.38
[7]; Homo sapiens, A549, read-out: Average cell viability, A549, 1 ug/mL
  viability at 1 µg/mL: 57%
[7]; Homo sapiens, A549, read-out: Average cell viability, A549, 10 ug/mL
  viability at 10 µg/mL: 55%
[7]; Homo sapiens, A549, read-out: Average cell viability, A549, 50 ug/mL
  viability at 50 µg/mL: 57%
[7]; Homo sapiens, A549, read-out: Average cell viability, A549, 100 ug/mL
  viability at 100 µg/mL: 32%
[8]; Homo sapiens, PC-3, read-out: Average cell viability, PC3, 1 ug/mL
  viability at 1 µg/mL: 104%
[8]; Homo sapiens, PC-3, read-out: Average cell viability, PC3, 10 ug/mL
  viability at 10 µg/mL: 97%
[8]; Homo sapiens, PC-3, read-out: Average cell viability, PC3, 50 ug/mL
  viability at 50 µg/mL: 16%
[8]; Homo sapiens, PC-3, read-out: Average cell viability, PC3, 100 ug/mL
  viability at 100 µg/mL: 12%
[8]; PC3, sample at 1 ug/mL
  PC3 AVG: 1.08
[8]; PC3, sample at 10 ug/mL
  PC3 AVG: 1.01
[8]; PC3, sample at 50 ug/mL
  PC3 AVG: 0.16
[8]; PC3, sample at 100 ug/mL
  PC3 AVG: 0.12
[8]; PC3, 1 ug/mL
  Fold change in viability AVG: 1.08
[8]; PC3, 10 ug/mL
  Fold change in viability AVG: 1.01
[8]; PC3, 50 ug/mL
  Fold change in viability AVG: 0.16
[8]; PC3, 100 ug/mL
  Fold change in viability AVG: 0.12
[9]; Homo sapiens, THP-1, read-out: Average cell viability, THP-1, 1 ug/mL
  viability at 1 µg/mL: 104%
[9]; Homo sapiens, THP-1, read-out: Average cell viability, THP-1, 10 ug/mL
  viability at 10 µg/mL: 101%
[9]; Homo sapiens, THP-1, read-out: Average cell viability, THP-1, 50 ug/mL
  viability at 50 µg/mL: 40%
[9]; Homo sapiens, THP-1, read-out: Average cell viability, THP-1, 100 ug/mL
  viability at 100 µg/mL: 27%
[9]; THP-1, sample at 1 ug/mL
  THP-1 AVG: 1.19
[9]; THP-1, sample at 10 ug/mL
  THP-1 AVG: 1.14
[9]; THP-1, sample at 50 ug/mL
  THP-1 AVG: 0.46
[9]; THP-1, sample at 100 ug/mL
  THP-1 AVG: 0.31
[9]; THP-1, 1 ug/mL
  Fold change in viability AVG: 1.19
[9]; THP-1, 10 ug/mL
  Fold change in viability AVG: 1.14
[9]; THP-1, 50 ug/mL
  Fold change in viability AVG: 0.46
[9]; THP-1, 100 ug/mL
  Fold change in viability AVG: 0.31

## CCCCCCCCCCCCOS(=O)(=O)[O-].[Na+] [cont-SDS]
[1]; SKOV, 250 ug/ml
  In vitro activity against cancer cell lines, SKOV AVG: 0.10
[5]; 250 ug/ml
  In vitro activity against cancer cell lines, MDA-MB AVG: 0.16
[6]; U373, 250 ug/ml
  In vitro activity against cancer cell lines, U373 AVG: 0.05
[7]; A549, 250 ug/ml
  In vitro activity against cancer cell lines, A549 AVG: 0.13
[8]; PC3, 250 ug/ml
  In vitro activity against cancer cell lines, PC3 AVG: 0.08
[9]; THP-1, 250 ug/ml
  In vitro activity against cancer cell lines, THP-1 AVG: 0.18
